{"source": "patent US20040033940A1", "about": "“Cyclic hepta-peptide derivative from colonial ascidians, lissoclinum SP” (Pharma Mar, S.A., priority 2002, published 2004)", "key": {"[1]": {"system": "A-549 (monolayer culture of a human lung carcinoma)", "procedure": "(§1) Cells were maintained in logarithmic phase of growth in Eagle's Minimum Essential Medium, with Earle's Balanced Salts, with 2.0 mM L-glutamine, with non-essential amino acids, without sodium bicarbonate (EMEM/neaa); supplemented with 10% Fetal Calf Serum (FCS), 10^−2 M sodium bicarbonate and 0.1 g/l penicillin-G+streptomycin sulfate.\n(§2) The antitumor cells employed were P-388 (suspension culture of a lymphoid neoplasm from DBA-2 mouse), A-549 (monolayer culture of a human lung carcinoma), HT-29 (monolayer culture of a human colon carcinoma) and MEL-28 (monolayer culture of a human melanoma).\n(§3) A-549, HT-29 and MEL-28 cells were seeded into 16 mm wells at 2×10^4 cells per well in 1 ml aliquots of MEM 10FCS containing the indicated concentration of drug. A separate set of cultures without drug was seeded as control growth to ensure that cells remained in exponential phase of growth. All determinations were carried in duplicate. After three days of incubation at 37° C., 10% CO2 in a 98% humid atmosphere, the wells were stained with 0.1% Crystal Violet. An approximate IC50 was determined by comparing the growth in wells with drug to the growth in wells control."}, "[2]": {"system": "P-388 (suspension culture of a lymphoid neoplasm from DBA-2 mouse)", "procedure": "as §1\nA simple screening procedure was carried out to determine and compare the antitumor activity of this compound, using an adapted form of the method described by Bergeron et al. [Biochem. Bioph. […] The antitumor cells employed were P-388 (suspension culture of a lymphoid neoplasm from DBA-2 mouse), A-549 (monolayer culture of a human lung carcinoma), HT-29 (monolayer culture of a human colon carcinoma) and MEL-28 (monolayer culture of a human melanoma).\nP-388 cells were seeded into 16 mm wells at 1×10^4 cells per well in 1 ml aliquots of MEM 5FCS containing the indicated concentration of drug. A separate set of cultures without drug was seeded as control growth to ensure that cells remained in exponential phase of growth. All determinations were carried out in duplicate. After three days of incubation at 37° C., 10% CO2 in a 98% humid atmosphere, an approximate IC50 was determined by comparing the growth in wells with drug to the growth in wells control."}, "[3]": {"system": "HT-29 (monolayer culture of a human colon carcinoma)", "procedure": "as §1, §2, §3"}, "[4]": {"system": "MEL-28 (monolayer culture of a human melanoma)", "procedure": "as §1, §2, §3"}}, "note": "Starred links: 1 amine or outer side, 2 acyl side, 3 side chain; linkers in the order of their positions; H or OH if unused. Non-standard residues stand in square brackets, D forms with d. Residues, ends and D or L forms follow the SMILES beside them. *: point of attachment. X1 = O=C([C@@H]1CSC([C@H](Cc2ccccc2)N[*:1])=N1)[*:2]; Allyl(1,1-Me2) = C=CC(C)(C)*"}
{"smiles": "C=CC(C)(C)OC[C@@H]1NC(=O)[C@H]([C@@H](C)OC(C)(C)C=C)NC(=O)[C@@H]2CSC(=N2)[C@H](Cc2ccccc2)NC(=O)[C@@H]2CCCN2C(=O)[C@H](C)NC(=O)[C@H]([C@@H](C)CC)NC1=O", "note": "[trunkamide A] (cyclo(AP[X1]T(Allyl(1,1-Me2))S(Allyl(1,1-Me2))I))", "values": [{"measurement": "IC50 A-549", "setting": "[1]", "value": 0.5, "unit": "µg/mL"}, {"measurement": "IC50 P-388", "setting": "[2]", "value": 0.5, "unit": "µg/mL"}, {"measurement": "IC50 HT-29", "setting": "[3]", "value": 0.5, "unit": "µg/mL"}, {"measurement": "IC50 MEL-28", "setting": "[4]", "value": 1.0, "unit": "µg/mL"}]}
